Values of other authors as cited in patent US7332525B2, “Method of treatment of prostate cancer and composition for treatment thereof” (priority 2003, dated 2008).

What was measured:
[1] = tested on: metastasized, hormone refractory prostate cancer; conditions: high doses of tamoxifen alone; patients with metastasized and hormone refractory prostate cancer
[2] = tested on: metastasized prostate cancer; conditions: in vivo

Row | SMILES | effect on prostate cancer cells [1] | effect on the progression of metastasized prostate cancer [2]
1 | CC/C(=C(\c1ccccc1)c1ccc(OCCN(C)C)cc1)c1ccccc1.O=C(O)CC(O)(CC(=O)O)C(=O)O [tamoxifen, (Z)2-[4-(1,2-diphenyl-1-butenyl)phenoxy]-N, N-dimethylethanamine 2-hydroxy-1,2,3-propanetricarboxylate (1:1)] | some effect | –
2 | CN(C)CCOc1ccc(C(=C(CCCl)c2ccccc2)c2ccccc2)cc1 [toremifene, 4-chloro-1,2-diphenyl-1-{4-[2-(N,N-dimethylamino)ethoxy]-phenyl}-1-butene] | – | some effect
3 | O=C(c1ccc(OCCN2CCCCC2)cc1)c1c(-c2ccc(O)cc2)sc2cc(O)ccc12 [raloxifene, 6-hydroxy-2(4-hydroxyphenyl)-3-[4-(2-piperdinoethoxy)benzoyl]benzo[b]thiophene] | – | some effect
